Assay results: ChEMBL document CHEMBL5226319, “Small molecule approaches to treat autoimmune and inflammatory diseases (Part III): Targeting cytokines and cytokine receptor complexes” (Bioorg Med Chem Lett, 2021)

Key:
[1] = Inhibition of human CXCL1 protein secretion in IL-36 gamma-stimulated HaCaT cells; type: cell-based
[2] = target: T1, Interleukin-1 receptor type 1 (Homo sapiens, UniProt P14778); test: Inhibition of human IL1-R1 assessed as dissociation constant incubated for 5 mins by SPR analysis
T1 sequence (P14778 whole entry): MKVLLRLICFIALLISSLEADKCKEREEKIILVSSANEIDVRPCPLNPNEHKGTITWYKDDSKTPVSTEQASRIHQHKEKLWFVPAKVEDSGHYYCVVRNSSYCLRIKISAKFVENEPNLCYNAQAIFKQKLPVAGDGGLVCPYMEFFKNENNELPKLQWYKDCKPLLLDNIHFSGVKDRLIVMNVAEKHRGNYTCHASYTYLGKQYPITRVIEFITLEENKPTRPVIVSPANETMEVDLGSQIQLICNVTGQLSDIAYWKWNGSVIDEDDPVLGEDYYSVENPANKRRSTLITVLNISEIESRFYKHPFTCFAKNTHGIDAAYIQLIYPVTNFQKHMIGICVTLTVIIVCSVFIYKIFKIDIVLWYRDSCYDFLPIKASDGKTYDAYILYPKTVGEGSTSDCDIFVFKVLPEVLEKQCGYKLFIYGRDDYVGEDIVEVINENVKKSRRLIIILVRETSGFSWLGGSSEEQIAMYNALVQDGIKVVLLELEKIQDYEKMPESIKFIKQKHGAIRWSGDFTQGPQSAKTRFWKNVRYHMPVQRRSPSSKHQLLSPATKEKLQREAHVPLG

Homo sapiens = species: Homo sapiens; test: (§1) Binding affinity to gp130 (unknown origin) assessed as fold increase
Interleukin-33 = target: T2, Interleukin-33 (Homo sapiens, UniProt O95760); test: Inhibition of human IL-33 incubated for 1 hrs by AlphaLISA assay
T2 sequence (O95760 whole entry): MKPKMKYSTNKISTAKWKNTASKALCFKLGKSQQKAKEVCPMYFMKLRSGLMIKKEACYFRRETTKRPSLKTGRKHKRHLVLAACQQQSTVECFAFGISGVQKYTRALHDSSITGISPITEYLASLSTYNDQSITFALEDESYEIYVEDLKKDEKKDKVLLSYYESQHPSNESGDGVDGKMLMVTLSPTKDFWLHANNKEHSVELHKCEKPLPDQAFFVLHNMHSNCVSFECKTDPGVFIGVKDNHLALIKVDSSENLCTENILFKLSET

[3] = as §1; parameters: species or system Homo sapiens
Interleukin-18 = target: T3, Interleukin-18 (Homo sapiens, UniProt Q14116); test: Inhibition of human IL-18 expressed in Escherichia coli BL21(DE3) cells incubated for 18 hrs
T3 sequence (Q14116 whole entry): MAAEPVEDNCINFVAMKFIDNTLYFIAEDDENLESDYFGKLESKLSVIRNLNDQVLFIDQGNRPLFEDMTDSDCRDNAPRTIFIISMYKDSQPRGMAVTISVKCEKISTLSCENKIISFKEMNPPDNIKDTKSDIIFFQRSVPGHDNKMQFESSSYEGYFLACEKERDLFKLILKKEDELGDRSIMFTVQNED

[4] = Binding affinity to gp130 (unknown origin) assessed as dissociation constant by SPR analysis; parameters: species or system Homo sapiens
[5] = Inhibition of IL-6/gp130 (unknown origin) by SPR analysis; parameters: species or system Homo sapiens
[6] = Inhibition of OSMR/gp130 (unknown origin) by SPR analysis; parameters: species or system Homo sapiens
[7] = target: T4, Interleukin-2 receptor subunit alpha (Homo sapiens, UniProt P01589); test: Inhibition of IL-2R alpha (unknown origin)
T4 sequence (P01589 whole entry): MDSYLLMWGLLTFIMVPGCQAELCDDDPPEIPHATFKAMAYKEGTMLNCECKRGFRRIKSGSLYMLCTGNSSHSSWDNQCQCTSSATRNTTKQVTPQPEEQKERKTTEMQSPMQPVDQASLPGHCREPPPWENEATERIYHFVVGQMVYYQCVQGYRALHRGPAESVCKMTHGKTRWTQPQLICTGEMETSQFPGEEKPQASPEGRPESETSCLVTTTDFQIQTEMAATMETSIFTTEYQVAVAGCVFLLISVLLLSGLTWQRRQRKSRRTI

Interleukin-4 [8] = target: T5, Interleukin-4 (Homo sapiens, UniProt P05112); test: Inhibition of IL-4 (unknown origin) assessed as dissociation constant by SPR analysis
T5 sequence (P05112 whole entry): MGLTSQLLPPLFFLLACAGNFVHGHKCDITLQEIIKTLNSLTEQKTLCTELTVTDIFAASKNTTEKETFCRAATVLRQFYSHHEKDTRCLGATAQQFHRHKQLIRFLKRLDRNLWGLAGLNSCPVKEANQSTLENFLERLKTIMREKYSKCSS

Interleukin-4 [9] = target: T5, Interleukin-4; test: Inhibition of IL-4 (unknown origin) in human THP-1 cells assessed as inhibition of STAT6 phosphorylation by HEK-Blue assay; type: cell-based

COC(c1ccccc1)(c1ccccc1)[C@H](Oc1nc(C)cc(-c2ccc(C)c(N)c2)n1)C(=O)O
IC50 [1]: 0.031 µM

NCCc1c(-c2ccccc2)n(-c2ccccc2)c2ccccc12
Kd [2]: 316 µM

CCCCc1ccc(OC)c(CN2c3ccccc3[C@]3(O)C[C@@H](COC(=O)c4ccccc4)O[C@H]23)c1OC
fold change (FC) (Homo sapiens): 5

COc1ccc([C@H]2CCCN2Cc2ccc(-c3ccccc3[N+](=O)[O-])o2)cc1
IC50 (Interleukin-33): 43 µM

CCCCc1ccc(O)c(Cn2cc(CC(O)COC(=O)c3ccccc3)c3ccccc32)c1O (stereo unspecified)
Kd [3]: 29 µM | fold change (FC) (Homo sapiens): 5

COc1ccc([C@@H]2CCCN2Cc2ccc(-c3ccccc3[N+](=O)[O-])o2)cc1
IC50 (Interleukin-33): 42 µM

CCCCc1ccc(O)c(CN2c3ccccc3[C@]3(O)C[C@@H](COC(=O)c4ccccc4)O[C@H]23)c1O
Kd [3]: 36.9 µM | fold change (FC) (Homo sapiens): 5

N#Cc1ccc(NC(=O)Nc2ccc(Oc3ccc(NC(=O)Nc4ccc(C#N)cc4)cc3)cc2)cc1
EC50 (Interleukin-18): 0.25 µM

CCCCC1=C(C)C(=O)[C@@](C)(CN2c3ccccc3[C@]3(O)CCO[C@H]23)C1=O
Kd [4]: 288 µM

Brc1ccc(Nc2nc(-c3ccccc3)cs2)cc1
Kd [5]: 2.9 µM | Kd [6]: 5.7 µM

COC(=O)[C@H](Cc1ccc(C#Cc2ccccc2)cc1)NC(=O)C[C@H]1CCCN(C(=N)N)C1
IC50 [7]: 3 µM

N#Cc1c(-c2ccc(O)c(O)c2)cc(-c2ccc(F)cc2)nc1N
Kd (Interleukin-4 [8]): 1.8 µM | EC50 (Interleukin-4 [9]): 3.1 µM
